Patent US20250145633A1, “SUBSTITUTED FURANOPYRIMIDINE COMPOUNDS AS PDE1 INHIBITORS” (Dart NeuroScience, LLC, priority 2017, published 2025)

Biological target: human PDE1B enzyme (Homo sapiens (Human), UniProt Q01064)
Test: IMAP TR-FRET PDE1B enzymatic assay
Format: biochemical
Conditions: negative log of half-maximal molar inhibitory concentration; 200 nM FAM-cAMP; values given as bins; read-out: PDE1b (pIC50) (converted)
Method in brief: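 Full-length GST-tagged human PDE1B (250 pg/well) in IMAP BSA buffer with 10 U/ml calmodulin and 2.5 mM CaCl2; compound pre-incubated 5 min at room temperature, then 200 nM (final) FAM-cAMP for 30 min. IMAP binding reagent/Tb added, 1 h; TR-FRET 520/490 ratio read. IC50 from sigmoidal dose-response fit.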

Work on `Cc1ccc(NC(=O)c2c(C)oc3ncnc(NC4(C)CC4)c23)nn1` [Example 434, 6-Methyl-4-[(1-methylcyclopropyl)amino]-N-(6-methylpyridazin-3-yl)furo[2,3-d]pyrimidine-5-carboxamide] yielded an IC50 of 100 to 1000 nM.

`Cc1oc2ncnc(NC3(C)CC3)c2c1C(=O)Nc1cn(C)cn1` [Example 435, 6-Methyl-N-(1-methyl-1H-imidazol-4-yl)-4-[(1-methylcyclopropyl)amino]furo[2,3-d]pyrimidine-5-carboxamide] was tested, and the IC50 was 100 to 1000 nM.

In the case of `Cc1nc(NC(=O)c2c(C)oc3ncnc(NC4(C)CC4)c23)ccc1F` [Example 436, N-(5-Fluoro-6-methylpyridin-2-yl)-6-methyl-4-[(1-methylcyclopropyl)amino]furo[2,3-d]pyrimidine-5-carboxamide], the IC50 is reported as 10 to 100 nM.

`Cc1cncc(NC(=O)c2c(C)oc3ncnc(NC4(C)CC4)c23)n1` [Example 437, 6-Methyl-4-[(1-methylcyclopropyl)amino]-N-(6-methylpyrazin-2-yl)furo[2,3-d]pyrimidine-5-carboxamide] showed an IC50 of 100 to 1000 nM.

Work on `Cc1ccc(NC(=O)c2c(C)oc3ncnc(NC4(C)CC4)c23)nc1` [Example 438, 6-Methyl-4-[(1-methylcyclopropyl)amino]-N-(5-methylpyridin-2-yl)furo[2,3-d]pyrimidine-5-carboxamide] yielded an IC50 of 100 to 1000 nM.

Compound `Cc1oc2ncnc(NC3(C)CC3)c2c1C(=O)Nc1cc(C)n(C)n1` [Example 439, N-(1,5-Dimethyl-1H-pyrazol-3-yl)-6-methyl-4-[(1-methylcyclopropyl)amino]furo[2,3-d]pyrimidine-5-carboxamide] has an IC50 of 100 to 1000 nM.

Work on `COCCn1ccc(NC(=O)c2c(C)oc3ncnc(NC4(C)CC4)c23)n1` [Example 440, N-[1-(2-Methoxyethyl)-1H-pyrazol-3-yl]-6-methyl-4-[(1-methylcyclopropyl)amino]furo[2,3-d]pyrimidine-5-carboxamide] yielded an IC50 of 10 to 100 nM.

`Cc1ncc(NC(=O)c2c(C)oc3ncnc(NC4(C)CC4)c23)nc1C` [Example 441, N-(5,6-Dimethylpyrazin-2-yl)-6-methyl-4-[(1-methylcyclopropyl)amino]furo[2,3-d]pyrimidine-5-carboxamide] showed an IC50 of 10 to 100 nM.

`Cc1nc(NC(=O)c2c(C)oc3ncnc(NC4(C)CC4)c23)oc1C` [Example 442, N-(Dimethyl-1,3-oxazol-2-yl)-6-methyl-4-[(1-methylcyclopropyl)amino]furo[2,3-d]pyrimidine-5-carboxamide] showed an IC50 of 10 to 100 nM.

`Cc1csc(NC(=O)c2c(C)oc3ncnc(NC4(C)CC4)c23)n1` [Example 443, 6-Methyl-N-(4-methyl-1,3-thiazol-2-yl)-4-[(1-methylcyclopropyl)amino]furo[2,3-d]pyrimidine-5-carboxamide] gave an IC50 of 10 to 100 nM.

Compound `Cc1oc2ncnc(NC3(C)CC3)c2c1C(=O)N1CCC(C#N)(c2cccc(F)n2)CC1` [Example 444, 4-(6-Fluoropyridin-2-yl)-1-{6-methyl-4-[(1-methylcyclopropyl)amino]furo[2,3-d]pyrimidine-5-carbonyl}piperidine-4-carbonitrile] has an IC50 of 10 to 100 nM.

Compound `Cc1oc2ncnc(NC3(C)CC3)c2c1C(=O)Nc1ccn(C(C)C)n1` [Example 445, 6-Methyl-4-[(1-methylcyclopropyl)amino]-N-[1-(propan-2-yl)-1H-pyrazol-3-yl]furo[2,3-d]pyrimidine-5-carboxamide] has an IC50 of 10 to 100 nM.

Work on `Cc1oc2ncnc(NC3(C)CC3)c2c1C(=O)Nc1ccn(-c2ncccc2F)n1` [Example 446, N-[1-(3-Fluoropyridin-2-yl)-1H-pyrazol-3-yl]-6-methyl-4-[(1-methylcyclopropyl)amino]furo[2,3-d]pyrimidine-5-carboxamide] yielded an IC50 of 10 to 100 nM.

Compound `Cc1oc2ncnc(NC3(C)CC3)c2c1C(=O)Nc1cnn(-c2ncccc2F)c1` [Example 447, N-[1-(3-Fluoropyridin-2-yl)-1H-pyrazol-4-yl]-6-methyl-4-[(1-methylcyclopropyl)amino]furo[2,3-d]pyrimidine-5-carboxamide] has an IC50 of 10 to 100 nM.
